# Data as given in ChEMBL document CHEMBL4346703, “Structure Overhaul Affords a Potent Purine PI3Kδ Inhibitor with Improved Tolerability” (J Med Chem, 2019).
# pIC50: −log10 of the molar value.
# Tests used:
# [1] = Oral bioavailability in Beagle dog; format: ADME, organism-based, Canis lupus familiaris; settings: in vivo
# [2] = Protein binding in Beagle dog plasma; format: ADME, cell-free, Canis lupus familiaris; settings: read-out: PPB (converted)
# [3] = Inhibition of adenosine transporter in human HeLa cells assessed as reduction in [3H]adenosine uptake preincubated for 30 mins followed by [3H]adenosine addition and measured after 60 mins; format: ADME, cell-based
# [4] = biological target: PI3-kinase p110-alpha/p85-alpha (Homo sapiens, UniProt P42336); assay: Inhibition of N-terminal His6-tagged recombinant full length human p110alpha/untagged recombinant full length human p85alpha expressed in baculovirus infected Sf21 insect cells using PIP2 as substrate preincubated for 15 mins followed by substrate addition and measured after 1 hr by HTRF assay
# Canis familiaris = assay: Hemodynamic activity in Beagle dog at 25 mg/kg administered for 8 days; format: ADME, organism-based, Canis lupus familiaris; settings: in vivo, 192 h
# [5] = fAUC in Beagle dog at 25 mg/kg administered for 8 days; format: ADME, organism-based, Canis lupus familiaris; settings: in vivo, 192 h
# [6] = Toxicity in Beagle dog assessed as decrease in RBC count at 25 mg/kg administered for 8 days; format: organism-based, Canis lupus familiaris; settings: in vivo, 192 h
# [7] = Intrinsic clearance in rat microsomes; format: ADME, Microsome
# [8] = Drug recovery in rat urine after 24 hrs; format: ADME; settings: read-out: Drug recovery
# [9] = Protein binding in human plasma; format: ADME, cell-free; settings: read-out: PPB (converted)
# [10] = Plasma clearance in Wistar Han rat at 0.5 mg/kg, iv or 1 mg/kg, po; format: ADME, organism-based
# Phosphodiesterase 4 = Phosphodiesterase 4 (Homo sapiens, UniProt P27815+Q08499+Q07343+Q08493); assay: Inhibition of PDE4 (unknown origin); format: protein assay
# Rattus norvegicus = assay: Hemodynamic activity in telemetered rat assessed as effect on arterial blood pressure at 60 mg/kg; format: ADME, organism-based; settings: in vivo
# [11] = biological target: cGMP-dependent 3',5'-cyclic phosphodiesterase (Homo sapiens, UniProt O00408); assay: Inhibition of PDE2 (unknown origin)
# [12] = Intrinsic clearance in Beagle dog at 0.25 mg/kg, iv or 0.5 mg/kg, po; format: ADME, organism-based, Canis lupus familiaris; settings: in vivo
# [13] = biological target: T1, Phosphatidylinositol 4,5-bisphosphate 3-kinase catalytic subunit delta isoform (Homo sapiens, UniProt O00329); assay: Inhibition of PI3Kdelta in human Ramos cells assessed as reduction in anti-IgM-antibody-induced phosphorylation of AKT at Ser473 residue preincubated for 20 mins followed by anti-IgM antibody stimulation and measured after 30 mins by alphascreen assay; format: cell-based
# T1 sequence (O00329 whole entry): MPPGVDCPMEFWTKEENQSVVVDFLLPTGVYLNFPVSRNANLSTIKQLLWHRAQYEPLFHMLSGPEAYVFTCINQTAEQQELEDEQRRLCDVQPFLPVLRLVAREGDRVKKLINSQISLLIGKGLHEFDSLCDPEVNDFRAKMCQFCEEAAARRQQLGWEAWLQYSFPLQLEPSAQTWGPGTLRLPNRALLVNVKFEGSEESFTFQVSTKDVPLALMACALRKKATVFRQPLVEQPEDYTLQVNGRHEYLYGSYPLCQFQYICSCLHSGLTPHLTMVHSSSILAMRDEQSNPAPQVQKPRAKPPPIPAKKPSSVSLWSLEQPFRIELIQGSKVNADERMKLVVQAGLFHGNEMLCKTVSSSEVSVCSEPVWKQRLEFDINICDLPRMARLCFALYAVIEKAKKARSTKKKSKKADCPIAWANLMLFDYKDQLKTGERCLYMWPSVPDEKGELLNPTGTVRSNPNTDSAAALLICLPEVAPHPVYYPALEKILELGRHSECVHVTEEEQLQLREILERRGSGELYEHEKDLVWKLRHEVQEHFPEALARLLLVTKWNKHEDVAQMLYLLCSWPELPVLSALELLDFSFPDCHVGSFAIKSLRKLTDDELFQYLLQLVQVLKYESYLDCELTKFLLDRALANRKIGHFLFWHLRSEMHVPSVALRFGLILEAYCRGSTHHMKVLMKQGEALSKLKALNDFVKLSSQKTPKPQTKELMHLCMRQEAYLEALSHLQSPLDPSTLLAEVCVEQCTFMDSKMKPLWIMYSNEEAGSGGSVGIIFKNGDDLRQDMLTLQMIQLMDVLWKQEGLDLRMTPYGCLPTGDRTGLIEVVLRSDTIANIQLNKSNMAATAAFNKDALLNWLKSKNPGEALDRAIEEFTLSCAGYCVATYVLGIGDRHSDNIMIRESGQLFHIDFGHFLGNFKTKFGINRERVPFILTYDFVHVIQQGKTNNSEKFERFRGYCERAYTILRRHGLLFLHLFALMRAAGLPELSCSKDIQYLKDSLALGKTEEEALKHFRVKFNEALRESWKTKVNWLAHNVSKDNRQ
# [14] = Intrinsic clearance in rat hepatocytes; format: ADME, cell-based, Hepatocyte; settings: read-out: CLH
# [15] = fAUC in telemetered rat at 60 mg/kg; format: ADME, organism-based; settings: in vivo
# [16] = Half-life in Wistar Han rat; format: ADME; settings: in vivo
# [17] = fCmax in Beagle dog at 25 mg/kg administered for 8 days; format: ADME, organism-based, Canis lupus familiaris; settings: in vivo, 192 h
# [18] = biological target: cAMP and cAMP-inhibited cGMP 3',5'-cyclic phosphodiesterase 10A (Homo sapiens, UniProt Q9Y233); assay: Inhibition of PDE10 (unknown origin)
# [19] = Unbound volume of distribution in Beagle dog; format: ADME, Canis lupus familiaris; settings: in vivo
# [20] = fCmax in rat at 750 mg/kg administered for 4 days; format: ADME, organism-based; settings: in vivo, 96 h
# [21] = Drug recovery in rat bile after 24 hrs; format: ADME; settings: read-out: Drug recovery
# [22] = biological target: PI3-kinase p110-delta/p85-alpha (Homo sapiens, UniProt O00329); assay: Inhibition of N-terminal His6-tagged recombinant full length human p110delta/untagged recombinant full length human p85alpha expressed in baculovirus infected Sf21 insect cells using PIP2 as substrate preincubated for 15 mins followed by substrate addition and measured after 1 hr by HTRF assay
# [23] = Solubility of the compound; format: physicochemical
# [24] = Protein binding in Wistar Han rat plasma; format: ADME, cell-free; settings: read-out: PPB (converted)
# [25] = Toxicity in Beagle dogs assessed as body weight loss at 25 mg/kg administered for 8 days; format: organism-based, Canis lupus familiaris; settings: dog, in vivo, 192 h
# [26] = Volume of distribution in Wistar Han rat; format: ADME; settings: in vivo
# [27] = Plasma clearance in Beagle dog at 0.25 mg/kg, iv or 0.5 mg/kg, po; format: ADME, organism-based, Canis lupus familiaris
# Cytochrome P450 = assay: Inhibition of cytochrome P450 (unknown origin); format: ADME, protein assay; settings: human
# [28] = Oral bioavailability in Wistar Han rat; format: ADME, organism-based; settings: in vivo
# [29] = biological target: T1, Phosphatidylinositol 4,5-bisphosphate 3-kinase catalytic subunit delta isoform; assay: Inhibition of PI3Kdelta in human whole blood assessed as reduction in antihuman IgE antibody-stimulated CD63 expression preincubated for 30 mins followed by antihuman IgE antibody stimulation and measured after 20 mins by FACS analysis; format: tissue-based
# [30] = biological target: High affinity cAMP-specific and IBMX-insensitive 3',5'-cyclic phosphodiesterase 8A (Homo sapiens, UniProt O60658); assay: Inhibition of PDE8 (unknown origin)
# Homo sapiens = species: Homo sapiens; assay: Selectivity ratio of IC50 for N-terminal His6-tagged recombinant full length human PI3Kgamma expressed in baculovirus infected Sf21 cells to IC50 for N-terminal His6-tagged recombinant full length human p110delta/untagged recombinant full length human p85alpha expressed in baculovirus infected Sf21 insect cells
# [31] = Volume of distribution in Beagle dog; format: ADME, Canis lupus familiaris; settings: in vivo
# Chain of cAMP and cAMP-inhibited cGMP 3',5'-cyclic phosphodiesterase 10A (Q9Y233 whole entry): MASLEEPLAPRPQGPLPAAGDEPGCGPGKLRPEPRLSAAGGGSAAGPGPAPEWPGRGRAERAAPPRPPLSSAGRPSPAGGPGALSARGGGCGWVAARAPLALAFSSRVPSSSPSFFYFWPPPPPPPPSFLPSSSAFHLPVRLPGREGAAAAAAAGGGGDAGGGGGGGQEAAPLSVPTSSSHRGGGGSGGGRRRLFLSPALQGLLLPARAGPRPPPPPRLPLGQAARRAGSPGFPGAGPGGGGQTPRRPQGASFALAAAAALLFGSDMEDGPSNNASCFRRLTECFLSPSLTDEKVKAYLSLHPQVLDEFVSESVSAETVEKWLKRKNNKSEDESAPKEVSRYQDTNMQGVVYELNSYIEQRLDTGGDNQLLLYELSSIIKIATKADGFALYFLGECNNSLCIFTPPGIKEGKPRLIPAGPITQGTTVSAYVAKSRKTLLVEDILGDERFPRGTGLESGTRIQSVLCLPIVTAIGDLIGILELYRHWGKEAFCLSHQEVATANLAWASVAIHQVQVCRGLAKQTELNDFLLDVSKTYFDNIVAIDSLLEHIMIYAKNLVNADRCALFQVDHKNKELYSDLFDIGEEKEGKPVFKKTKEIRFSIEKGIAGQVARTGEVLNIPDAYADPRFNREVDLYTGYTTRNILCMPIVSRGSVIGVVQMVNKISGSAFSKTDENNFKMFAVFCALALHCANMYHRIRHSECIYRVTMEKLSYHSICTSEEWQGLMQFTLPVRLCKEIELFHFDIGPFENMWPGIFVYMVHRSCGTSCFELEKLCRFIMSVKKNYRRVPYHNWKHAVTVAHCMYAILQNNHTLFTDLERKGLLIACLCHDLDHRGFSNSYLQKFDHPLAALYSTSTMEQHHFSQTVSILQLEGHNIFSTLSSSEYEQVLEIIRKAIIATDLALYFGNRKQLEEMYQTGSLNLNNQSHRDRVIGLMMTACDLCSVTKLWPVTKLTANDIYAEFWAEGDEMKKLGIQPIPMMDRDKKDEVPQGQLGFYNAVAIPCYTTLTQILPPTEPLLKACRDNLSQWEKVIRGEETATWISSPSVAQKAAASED
# Chain of PI3-kinase p110-delta/p85-alpha (P27986 whole entry, one chain of several): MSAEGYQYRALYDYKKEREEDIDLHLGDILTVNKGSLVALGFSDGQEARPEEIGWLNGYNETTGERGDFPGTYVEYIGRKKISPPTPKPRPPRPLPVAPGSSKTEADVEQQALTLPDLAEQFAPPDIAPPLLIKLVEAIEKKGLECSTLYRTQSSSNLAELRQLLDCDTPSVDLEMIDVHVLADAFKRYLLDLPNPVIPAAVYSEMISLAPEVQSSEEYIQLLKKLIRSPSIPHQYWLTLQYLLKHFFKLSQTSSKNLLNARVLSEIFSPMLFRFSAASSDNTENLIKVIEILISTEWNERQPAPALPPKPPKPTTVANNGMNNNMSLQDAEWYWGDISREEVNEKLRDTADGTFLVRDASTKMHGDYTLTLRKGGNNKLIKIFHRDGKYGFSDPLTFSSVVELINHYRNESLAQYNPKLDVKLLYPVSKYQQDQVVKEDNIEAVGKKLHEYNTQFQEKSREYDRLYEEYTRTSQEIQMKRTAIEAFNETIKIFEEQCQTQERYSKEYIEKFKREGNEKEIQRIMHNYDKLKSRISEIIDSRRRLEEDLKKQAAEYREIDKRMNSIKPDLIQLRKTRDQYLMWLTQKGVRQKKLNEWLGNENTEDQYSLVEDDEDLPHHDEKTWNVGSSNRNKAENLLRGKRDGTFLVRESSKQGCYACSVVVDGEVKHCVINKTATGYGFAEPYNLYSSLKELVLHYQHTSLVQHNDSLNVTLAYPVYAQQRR
# Chain of PI3-kinase p110-alpha/p85-alpha (P27986 whole entry): as the sequence (P27986 whole entry, one chain of several) above
# Chain of PI3-kinase p110-alpha/p85-alpha (P42336 whole entry): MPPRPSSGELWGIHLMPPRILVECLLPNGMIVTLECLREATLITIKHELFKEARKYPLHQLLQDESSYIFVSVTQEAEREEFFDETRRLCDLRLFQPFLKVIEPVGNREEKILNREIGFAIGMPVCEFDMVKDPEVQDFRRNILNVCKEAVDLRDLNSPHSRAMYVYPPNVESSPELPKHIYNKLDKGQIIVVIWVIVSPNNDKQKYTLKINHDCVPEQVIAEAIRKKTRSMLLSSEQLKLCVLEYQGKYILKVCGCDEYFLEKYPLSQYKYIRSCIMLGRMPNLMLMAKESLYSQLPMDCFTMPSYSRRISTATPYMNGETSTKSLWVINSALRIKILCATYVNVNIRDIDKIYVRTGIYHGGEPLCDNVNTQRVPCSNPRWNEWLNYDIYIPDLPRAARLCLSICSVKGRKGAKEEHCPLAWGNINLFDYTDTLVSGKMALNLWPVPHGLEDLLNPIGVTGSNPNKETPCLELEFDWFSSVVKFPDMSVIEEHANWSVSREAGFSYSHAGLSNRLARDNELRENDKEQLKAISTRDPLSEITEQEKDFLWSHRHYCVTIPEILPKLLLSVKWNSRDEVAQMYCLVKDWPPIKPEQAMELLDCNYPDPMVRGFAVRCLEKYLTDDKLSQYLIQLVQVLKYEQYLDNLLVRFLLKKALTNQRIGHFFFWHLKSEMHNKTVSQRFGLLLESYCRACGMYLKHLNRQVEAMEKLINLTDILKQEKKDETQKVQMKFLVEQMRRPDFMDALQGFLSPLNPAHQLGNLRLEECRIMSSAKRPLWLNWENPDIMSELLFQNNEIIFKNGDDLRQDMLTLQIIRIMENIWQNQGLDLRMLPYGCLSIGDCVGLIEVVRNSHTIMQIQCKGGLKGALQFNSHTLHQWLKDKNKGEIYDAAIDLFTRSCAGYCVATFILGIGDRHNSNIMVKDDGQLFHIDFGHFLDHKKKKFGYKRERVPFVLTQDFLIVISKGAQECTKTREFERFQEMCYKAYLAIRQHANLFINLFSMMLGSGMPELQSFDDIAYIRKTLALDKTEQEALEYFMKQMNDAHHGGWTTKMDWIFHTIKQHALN
# Chain of High affinity cAMP-specific and IBMX-insensitive 3',5'-cyclic phosphodiesterase 8A (O60658 whole entry): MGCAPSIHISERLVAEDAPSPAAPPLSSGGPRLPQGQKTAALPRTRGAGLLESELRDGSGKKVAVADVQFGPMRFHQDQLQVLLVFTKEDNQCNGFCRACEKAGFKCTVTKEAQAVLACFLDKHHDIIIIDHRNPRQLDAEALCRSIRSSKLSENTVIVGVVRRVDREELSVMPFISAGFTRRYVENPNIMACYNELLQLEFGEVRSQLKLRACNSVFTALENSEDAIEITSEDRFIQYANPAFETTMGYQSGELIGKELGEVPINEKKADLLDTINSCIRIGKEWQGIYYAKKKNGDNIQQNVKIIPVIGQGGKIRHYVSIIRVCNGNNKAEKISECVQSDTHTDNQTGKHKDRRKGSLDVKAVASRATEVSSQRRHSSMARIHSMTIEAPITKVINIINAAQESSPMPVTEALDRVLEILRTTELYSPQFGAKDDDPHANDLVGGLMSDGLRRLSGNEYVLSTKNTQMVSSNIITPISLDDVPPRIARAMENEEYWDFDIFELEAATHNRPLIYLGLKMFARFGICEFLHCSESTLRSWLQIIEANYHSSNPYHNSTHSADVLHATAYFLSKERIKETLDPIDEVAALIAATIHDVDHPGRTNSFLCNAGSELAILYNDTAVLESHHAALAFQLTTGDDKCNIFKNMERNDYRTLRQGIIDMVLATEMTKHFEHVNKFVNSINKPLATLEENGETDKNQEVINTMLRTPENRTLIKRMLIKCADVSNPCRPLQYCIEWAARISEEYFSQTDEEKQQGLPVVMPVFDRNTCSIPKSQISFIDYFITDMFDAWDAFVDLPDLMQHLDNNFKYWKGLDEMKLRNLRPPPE
# Chain of cGMP-dependent 3',5'-cyclic phosphodiesterase (O00408 whole entry): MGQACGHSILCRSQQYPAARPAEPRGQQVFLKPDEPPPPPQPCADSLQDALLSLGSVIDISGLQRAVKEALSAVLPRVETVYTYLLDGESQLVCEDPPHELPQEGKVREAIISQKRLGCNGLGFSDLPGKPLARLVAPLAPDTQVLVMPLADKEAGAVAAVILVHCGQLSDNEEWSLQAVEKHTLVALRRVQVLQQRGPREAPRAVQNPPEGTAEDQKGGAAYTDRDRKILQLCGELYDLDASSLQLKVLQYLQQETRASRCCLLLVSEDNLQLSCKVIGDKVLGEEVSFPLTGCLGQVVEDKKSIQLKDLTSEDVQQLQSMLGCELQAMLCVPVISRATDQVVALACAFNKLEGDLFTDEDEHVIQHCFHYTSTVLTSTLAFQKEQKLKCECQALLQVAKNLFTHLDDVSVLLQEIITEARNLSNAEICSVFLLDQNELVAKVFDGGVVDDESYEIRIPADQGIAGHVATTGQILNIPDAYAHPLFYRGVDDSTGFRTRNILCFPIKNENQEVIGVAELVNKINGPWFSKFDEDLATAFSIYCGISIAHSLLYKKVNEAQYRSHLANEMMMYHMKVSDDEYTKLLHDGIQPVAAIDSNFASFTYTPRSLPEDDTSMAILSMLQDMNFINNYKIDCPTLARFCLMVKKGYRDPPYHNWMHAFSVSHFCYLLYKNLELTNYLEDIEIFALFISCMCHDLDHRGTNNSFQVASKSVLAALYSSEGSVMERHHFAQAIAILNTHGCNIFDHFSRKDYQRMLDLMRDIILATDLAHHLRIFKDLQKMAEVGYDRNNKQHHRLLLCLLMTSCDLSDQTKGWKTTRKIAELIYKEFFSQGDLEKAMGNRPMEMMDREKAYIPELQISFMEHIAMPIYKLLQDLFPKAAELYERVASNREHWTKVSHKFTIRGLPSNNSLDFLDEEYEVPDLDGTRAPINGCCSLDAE
smiles,measurement,setting,value
CCn1ncc(-c2nc3c(O[C@H]4CCN(C(=O)C5CCOCC5)C4)ncnc3n2C)c1C,bioavailability,[1],100%
same,fraction unbound,[2],0.74
same,pIC50,[3],< 5.00
same,pIC50,[4],6.57
same,Activity,Canis familiaris,Non-Toxic
same,fAUC,[5],222 µM·h
same,Activity,[6],Non-Toxic
same,CLint scaled,[7],< 110 mL/min/kg
same,dose excreted at 24 h,[8],17%
same,fraction unbound,[9],0.83
same,clearance,[10],41 mL/min/kg
same,IC50,Phosphodiesterase 4,> 50000 nM
same,Activity,Rattus norvegicus,Non-Toxic
same,pIC50,[11],< 4.30
same,CL,[12],10 mL/min/kg
same,pIC50,[13],7.21
same,CLint scaled,[14],< 40 mL/min/kg
same,fAUC,[15],61 µM·h
same,half-life,[16],48 min
same,fCmax,[17],46 µM
same,pIC50,[18],< 4.30
same,Vdu,[19],3 L/kg
same,fCmax,[20],200 µM
same,dose excreted at 24 h,[21],2%
same,pIC50,[22],8.41
same,solubility,[23],> 10000 µg/mL
same,fraction unbound,[24],0.73
same,Activity,[25],Non-Toxic
same,Vd,[26],1.2 L/kg
same,clearance,[27],5.8 mL/min/kg
same,inhibition (INH),Cytochrome P450,Not Active
same,bioavailability,[28],55%
same,pIC50,[29],6.38
same,pIC50,[30],< 4.30
same,Ratio IC50,Homo sapiens,970
same,Vd,[31],0.9 L/kg
